Results from patent US10729672B2 (Wyeth LLC, priority 2005, dated 2020).

Experiments:
Type in all cases: cell-based
[1] = system: MDA-MB-361 [HER-2+ (non-amplified); adenocarcinoma; ATCC HTB 27] cells; test: SRB cell survival / growth inhibition, MDA-MB-361 cells; settings: MDA-MB-361, lower levels of HER-2 without amplification
Procedure: (§1) The combination was tested in three breast cancer cell lines of differing genotypes.
(§2) Cells from each of these cell lines were incubated in the presence of a range of concentrations ([…]) for each drug. […] Compound dilutions were prepared in the same medium, at 2× final concentration, and 100 μl of the drug dilution was added to the cell-containing wells.
(§3) Serial dilutions of one compound were prepared in the presence of a fixed dose of a second compound. Alternatively, a checkerboard dilution series was employed. Cells were cultured for three days in the presence of the drugs. Untreated cells were included as controls. The percentage of surviving cells was determined using sulforhodamine B (SRB, Sigma-Aldrich, St Louis, Mo.), a protein binding dye. Cellular protein was precipitated in each well by the addition of 50 μl 50% cold trichloroacetic acid. After 1 hour, the plates were washed extensively in water and dried. SRB dye reagent (0.4% SRB in 1% acetic acid, 80 μl per well) was added and plates were kept at room temperature for ten minutes. […] Cell-associated dye was dissolved in 10 mM Tris (150 μl) and the absorbance was read at 540 nm in a microtiter plate reader. The concentration of compound that caused a fixed percentage inhibition of growth was determined by plotting cell survival (relative to untreated cells) against the compound dose.

[2] = system: BT474 [HER-2+ (amplified); ATCC HTB-20] cells; test: SRB cell survival / growth inhibition, BT474 cells
Procedure: as §1, §2, §3

[3] = system: MCF-7 [HER-2−, EGFR−; adenocarcinoma; ATCC HTB22] cells; test: SRB cell survival / growth inhibition, MCF-7 cells; settings: MCF-7, no HER-2
Procedure: as §1, §2, §3

Compound: CCOc1cc2ncc(C#N)c(Nc3ccc(OCc4ccccn4)c(Cl)c3)c2cc1NC(=O)/C=C/CN(C)C [HKI-272, (E)-N-{4-[3-chloro-4-(2-pyridinylmethoxy)anilino]-3-cyano-7-ethoxy-6-quinolinyl}-4-(dimethylamino)-2-butenamide]
- sensitivity of the cell line to the single agent [1]: less sensitive
- sensitivity of the cell line to the single agent [2]: highly sensitive
- sensitivity of the cell line to the single agent [3]: resistant
